Common to all, as to assay type: in vivo
The subject of assay [1] is Flea (Ctenocephalides felis). The experiment in a line: Flea (Ctenocephalides felis) Membrane Feed Assay-Adult. The following applies: adult fleas fed on treated citrated bovine blood for 24 hours, lowest dose to cause mortality ≧50%, half-log intervals, read-out: Minimum Effective Concentration (MEC). The method, then:
Flea (Ctenocephalides felis) Membrane Feed Assay-Adult
Compounds were dissolved in DMSO and aliquots were added to citrated bovine blood in membrane covered wells warmed to 37° C. Adult fleas were newly emerged (3-7 days) and unfed. Feeding wells containing approximately 10 adult fleas were placed onto the treated blood wells, and the fleas were allowed to feed on the treated blood for 24 hours. […] Each compound was tested at half-log intervals, and endpoint data was recorded as Minimum Effective Concentration in μM. MEC is a subjective visual assessment of organism viability, and is the lowest dose to cause mortality ≧50%.

For assay [2], the system named is Soft Tick (Ornithidorus turicata). As to the kind of experiment: Soft Tick (Ornithidorus turicata) Blood Feed Assay. The following applies: nymph stage ticks fed on treated citrated bovine blood; paralysis and/or death observed at approximately 24, 48 and 72 hours. The method, then:
Soft Tick (Ornithidorus turicata) Blood Feed Assay
Compounds of the present invention were dissolved in dimethylsulfoxide (DMSO) and aliquots added to citrated bovine blood in a membrane covered Petri dish. The Petri dish is placed on a warming tray. Approximately 5 nymph stage ticks are placed onto the membrane, covered, and left to feed. Fed ticks are removed and placed into a Petri dish with sand. […] Endpoint data was recorded as a 100% lethal dose (LD^100) in μg/mL.

Assay [3] relates to Mosquito (Aedes aeqypti) larvae. The experiment in a line: Mosquito (Aedes aeqypti) Larval Assay. The following applies: first instar larvae, 25° C., 24 hours, lowest dose to inhibit motility ≧50% of untreated controls, half-log intervals, read-out: Minimum Effective Concentration (MEC). The method, then: Mosquito (Aedes aeqypti) Larval Assay
Compounds were dissolved in DMSO and aliquots were spotted to empty wells. First instar mosquito larvae and maintenance media were added to the wells to obtain between 8 and 15 larvae per well in the appropriate final assay volume. Larvae were incubated in the treated media at 25° C. for 24 hours. Mosquito larvae motility was measured at 24 hours. Each compound was tested at half-log intervals, and endpoint results were recorded as Minimum Effective Concentration (MEC) in μM. MEC is an objective assessment of organism motility, and is the lowest dose to inhibit motility ≧50% of untreated controls.

Consider `CS(=O)(=O)CC(=O)N1CC2(C1)OCc1cc(C3=NCC(c4cc(Cl)c(Cl)c(Cl)c4)(C(F)(F)F)C3)ccc12` (stereo not shown) [Example 1, 2-(methylsulfonyl)-1-(5′-(3-(3,4,5-trichlorophenyl)-3-(trifluoromethyl)-3,4-dihydro-2H-pyrrol-5-yl)-3′H-spiro[azetidine-3,1′-isobenzofuran]-1-yl)ethanone], for which the minimal effective concentration in assay [1] was found to be 0.3 µM; in assay [3], 0.1 µM. Also, the “100% lethal dose (LD100)” value in assay [2] was 0.03 µg/mL.
Turning to `CC(C)C(=O)N1CC2(C1)OCc1cc(C3=NCC(c4cc(Cl)cc(Cl)c4)(C(F)(F)F)C3)ccc12` (stereo not shown) [Example 6, 5′-(3-(3,5-dichlorophenyl)-3-(trifluoromethyl)-3,4-dihydro-2H-pyrrol-5-yl]-1-isobutyryl-3′H-spiro[azetidine-3,1′-[2]benzofuran]], the minimal effective concentration was determined as 1 µM in assay [1] and 0.1 µM in assay [3]. Besides, the “100% lethal dose (LD100)” value in assay [2] turned out to be 0.03 µg/mL.
The like results for `CS(=O)(=O)CC(=O)N1CC2(C1)OCc1cc(C3=NNC(c4cc(Cl)c(F)c(Cl)c4)(C(F)(F)F)C3)ccc12` (stereo not shown) [Example 13, 1-(5′-(5-(3,5-dichloro-4-fluorophenyl)-5-(trifluoromethyl)-4,5-dihydro-1H-pyrazol-3-yl)-3′H-spiro[azetidine-3,1′-isobenzofuran]-1-yl)-2-(methylsulfonyl)ethanone] were, in that order, at least 3 µM, 0.1 µM and 0.03 µg/mL.
For `CN1N=C(c2ccc3c(c2)COC32CN(C(=O)CS(C)(=O)=O)C2)CC1(c1cc(Cl)c(F)c(Cl)c1)C(F)(F)F` (stereo not shown) [Example 14, 1-(5′-(5-(3,5-dichloro-4-fluorophenyl)-1-methyl-5-(trifluoromethyl)-4,5-di hydro-1H-pyrazol-3-yl)-3′H-spiro[azetidine-3,1′-isobenzofuran]-1-yl)-2-(methylsulfonyl)ethanone], the minimal effective concentration in assay [1] was at least 3 µM. Moreover, the “100% lethal dose (LD100)” value in assay [2] came out at 0.1 µg/mL.
With `CC(C)C(=O)N1CC2(C1)OCc1cc(C3=NNC(c4cc(Cl)c(F)c(Cl)c4)(C(F)(F)F)C3)ccc12` (stereo not shown) [Example 15, 1-(5′-(5-(3,5-dichloro-4-fluorophenyl)-5-(trifluoromethyl)-4,5-dihydro-1H-pyrazol-3-yl)-3′H-spiro[azetidine-3,1′-isobenzofuran]-1-yl)-2-methylpropan-1-one], the minimal effective concentration in assay [1] is at least 3 µM. Further, the “100% lethal dose (LD100)” value in assay [2] amounted to 0.03 µg/mL.
Turning to `CC(C)C(=O)N1CC2(C1)OCc1cc(C3=NN(C)C(c4cc(Cl)c(F)c(Cl)c4)(C(F)(F)F)C3)ccc12` (stereo not shown) [Example 16, 1-(5′-(5-(3,5-dichloro-4-fluorophenyl)-1-methyl-5-(trifluoromethyl)-4,5-dihydro-1H-pyrazol-3-yl)-3′H-spiro[azetidine-3,1′-isobenzofuran]-1-yl)-2-methylpropan-1-one], the minimal effective concentration in assay [1] was 1 µM. In assay [2], the “100% lethal dose (LD100)” value stood at 0.03 µg/mL.
For the compound `CC(C)C(=O)N1CC2(C1)OCc1cc(N3CCC(c4cc(Cl)c(F)c(Cl)c4)(C(F)(F)F)C3)ccc12` (stereo not shown) [Example 21], the minimal effective concentration in assay [1] is at least 3 µM. Besides, the “100% lethal dose (LD100)” value in assay [2] worked out at 0.01 µg/mL.
On to `CS(=O)(=O)CC(=O)N1CC2(C1)OCc1cc(N3CCC(c4cc(Cl)c(F)c(Cl)c4)(C(F)(F)F)C3)ccc12` (stereo not shown) [Example 22, 1-(5-(3-(3,5-dichloro-4-fluorophenyl)-3-(trifluoromethyl)pyrrolidin-1-yl)-3′H-spiro[azetidine-3,1′-isobenzofuran]-1-yl)-2-(methylsulfonyl)ethanone], for which the minimal effective concentration in assay [1] is at least 3 µM; in assay [3] it was above 3 µM. For the same compound, the “100% lethal dose (LD100)” value in assay [2] came out at 0.03 µg/mL.
As to `CS(=O)(=O)CC(=O)N1CC2(C1)OCc1cc(N3CCC(c4cc(Cl)c(Cl)c(Cl)c4)(C(F)(F)F)C3)ccc12` (stereo not shown) [Example 26, 5′-[3-(3,4,5-trichloro)-3-(trifluoromethyl)pyrrolidin-1-yl]-1-[(methylsulfonyl)acetyl]-3′H-spiro[azetidine-3,1′-[2]benzofuran]], the minimal effective concentration in assay [1] is at least 3 µM; in assay [3], above 3 µM. In addition, the “100% lethal dose (LD100)” value in assay [2] is 0.1 µg/mL.
The like results for `CC(C)C(=O)N1CC2(C1)OCc1cc(C3=NOC(c4cc(Cl)c(F)c(Cl)c4)(C(F)(F)F)O3)ccc12` (stereo not shown) [Example 28, 1-(5′-(5-(3,5-dichloro-4-fluorophenyl)-5-(trifluoromethyl)-1,4,2-dioxazol-3-yl)-3′H-spiro[azetidine-3,1′-isobenzofuran]-1-yl)-2-methyl propan-1-one] were, in that order, at least 3 µM, 0.3 µM and 0.1 µg/mL.
As to `CC(C)C(=O)N1CC2(C1)OCc1cc(C3=NOC(c4cc(Cl)cc(Cl)c4)(C(F)(F)F)O3)ccc12` (stereo not shown) [Example 30, 1-(5-(5-(3,5-dichlorophenyl)-5-(trifluoromethyl)-1,4,2-dioxazol-3-yl)-3′H-spiro[azetidine-3,1′-isobenzofuran]-1-yl)-2-methylpropan-1-one], the minimal effective concentration in assay [1] is at least 3 µM. In addition, in assay [2], the “100% lethal dose (LD100)” value came out at 0.3 µg/mL.
`CC(C)C(=O)N1CC2(C1)OCc1cc(C3=NOC(c4cc(Cl)c(Cl)c(Cl)c4)(C(F)(F)F)O3)ccc12` (stereo not shown) [Example 31]: the minimal effective concentration was at least 3 µM in assay [1] and 0.3 µM in assay [3]. Further, in assay [2], the “100% lethal dose (LD100)” value came out at 0.3 µg/mL.

(Values after US9221835B2, “Spirocyclic derivatives as antiparasitic agents” (Zoetis Services LLC, priority 2012, dated 2015).)
